#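 Each compound was tested at five concentrations against cells in 96-well plates for 48 hours. The concentration for 50% growth inhibition is given as GI50.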 Calls of active or inactive are those of the source. Rule as the data show it: active = GI50 up to about 1.1 µM and inactive = higher.
# Tests used:
# Test in all cases: NCI tumour cell line growth inhibition, 48 h
# [1] = tested on: IGROV-1
# [2] = tested on: T47D
# [3] = tested on: A498
# [4] = tested on: SNB-75
# [5] = tested on: MOLT-4
# [6] = tested on: SNB-19
# [7] = tested on: HOP-92
# [8] = tested on: SK-MEL-2
# [9] = tested on: HCT-116
# [10] = tested on: ACHN
# [11] = tested on: SK-MEL-5
# [12] = tested on: SF-539
# [13] = tested on: UO-31
# [14] = tested on: U-251
# [15] = tested on: CCRF-CEM
# [16] = tested on: LOX IMVI
# [17] = tested on: SF-268
# [18] = tested on: M14
# [19] = tested on: NCI-H226
# [20] = tested on: 786-0
# [21] = tested on: SN12C
# [22] = tested on: CAKI-1
# [23] = tested on: K562
# [24] = tested on: NCI-H460
# [25] = tested on: BT-549
# [26] = tested on: Malme-3M
# [27] = tested on: SK-MEL-28
# [28] = tested on: RXF 393
# [29] = tested on: UACC-62
# [30] = tested on: HT-29
# [31] = tested on: OVCAR-4
# [32] = tested on: SR
# [33] = tested on: KM12
# [34] = tested on: OVCAR-5
# [35] = tested on: EKVX
# [36] = tested on: HCC 2998
# [37] = tested on: MDA-MB-231
# [38] = tested on: NCI-H522
# [39] = tested on: PC-3
# [40] = tested on: NCI-H23
# [41] = tested on: MDA-N
# [42] = tested on: SF-295
# [43] = tested on: DU-145
# [44] = tested on: UACC-257
# [45] = tested on: RPMI-8226
# [46] = tested on: HOP-62
# [47] = tested on: HL-60
# [48] = tested on: HCT-15
# [49] = tested on: TK-10
# [50] = tested on: Hs-578T
# [51] = tested on: A549
# [52] = tested on: OVCAR-3
# [53] = tested on: OVCAR-8
# [54] = tested on: MCF7
# [55] = tested on: SW-620
# [56] = tested on: COLO 205
# [57] = tested on: SK-OV-3
# [58] = tested on: MDA-MB-435
# [59] = tested on: NCI/ADR-RES
smiles,measurement,setting,value
CCCC(=O)N(C)/N=N/c1ccc(C(=O)OCC)cc1,GI50,[1],> 100 µM (inactive)
same,GI50,[2],63.4 µM (inactive)
same,GI50,[3],81.7 µM (inactive)
same,GI50,[4],37.9 µM (inactive)
same,GI50,[5],> 100 µM (inactive)
same,GI50,[6],> 100 µM (inactive)
same,GI50,[7],> 100 µM (inactive)
same,GI50,[8],> 100 µM (inactive)
same,GI50,[9],> 100 µM (inactive)
same,GI50,[10],> 100 µM (inactive)
same,GI50,[11],> 100 µM (inactive)
same,GI50,[12],> 100 µM (inactive)
same,GI50,[13],42.6 µM (inactive)
same,GI50,[14],> 100 µM (inactive)
same,GI50,[15],> 100 µM (inactive)
same,GI50,[16],> 100 µM (inactive)
same,GI50,[17],> 100 µM (inactive)
same,GI50,[18],> 100 µM (inactive)
same,GI50,[19],> 100 µM (inactive)
same,GI50,[20],> 100 µM (inactive)
same,GI50,[21],> 100 µM (inactive)
same,GI50,[22],> 100 µM (inactive)
same,GI50,[23],> 100 µM (inactive)
same,GI50,[24],22.6 µM (inactive)
same,GI50,[25],> 100 µM (inactive)
same,GI50,[26],> 100 µM (inactive)
same,GI50,[27],> 100 µM (inactive)
same,GI50,[28],> 100 µM (inactive)
same,GI50,[29],> 100 µM (inactive)
same,GI50,[30],> 100 µM (inactive)
same,GI50,[31],> 100 µM (inactive)
same,GI50,[32],> 100 µM (inactive)
same,GI50,[33],> 100 µM (inactive)
same,GI50,[34],> 100 µM (inactive)
same,GI50,[35],15.2 µM (inactive)
same,GI50,[36],> 100 µM (inactive)
same,GI50,[37],> 100 µM (inactive)
same,GI50,[38],52 µM (inactive)
same,GI50,[39],> 100 µM (inactive)
same,GI50,[40],> 100 µM (inactive)
same,GI50,[41],> 100 µM (inactive)
same,GI50,[42],> 100 µM (inactive)
same,GI50,[43],> 100 µM (inactive)
same,GI50,[44],> 100 µM (inactive)
same,GI50,[45],> 100 µM (inactive)
same,GI50,[46],> 100 µM (inactive)
same,GI50,[47],> 100 µM (inactive)
same,GI50,[48],> 100 µM
same,GI50,[49],> 100 µM (inactive)
same,GI50,[50],> 100 µM (inactive)
same,GI50,[51],> 100 µM (inactive)
same,GI50,[52],> 100 µM (inactive)
same,GI50,[53],> 100 µM (inactive)
same,GI50,[54],> 100 µM (inactive)
same,GI50,[55],> 100 µM (inactive)
NCCCC[C@H](N)C(=O)Nc1ccc(-c2nc3ccccc3s2)cc1,GI50,[1],16.7 µM (inactive)
same,GI50,[2],33.7 µM (inactive)
same,GI50,[3],22.1 µM (inactive)
same,GI50,[56],18.7 µM (inactive)
same,GI50,[4],16.8 µM (inactive)
same,GI50,[5],16.2 µM (inactive)
same,GI50,[57],21.1 µM (inactive)
same,GI50,[6],16.7 µM (inactive)
same,GI50,[7],34.7 µM (inactive)
same,GI50,[8],29.1 µM (inactive)
same,GI50,[9],19 µM (inactive)
same,GI50,[10],20.3 µM (inactive)
same,GI50,[11],33.4 µM (inactive)
same,GI50,[13],12.7 µM (inactive)
same,GI50,[14],14.3 µM (inactive)
same,GI50,[15],9.89 µM (inactive)
same,GI50,[16],24.8 µM (inactive)
same,GI50,[17],23.2 µM (inactive)
same,GI50,[18],12.6 µM (inactive)
same,GI50,[19],25.6 µM (inactive)
same,GI50,[58],18.7 µM (inactive)
same,GI50,[20],18.1 µM (inactive)
same,GI50,[21],24.8 µM (inactive)
same,GI50,[22],37.9 µM (inactive)
same,GI50,[23],19.6 µM (inactive)
same,GI50,[24],16.9 µM (inactive)
same,GI50,[25],28.6 µM (inactive)
same,GI50,[26],19.4 µM (inactive)
same,GI50,[27],19.7 µM (inactive)
same,GI50,[28],33.2 µM (inactive)
same,GI50,[29],21.7 µM (inactive)
same,GI50,[30],16.5 µM (inactive)
same,GI50,[31],36.2 µM (inactive)
same,GI50,[32],18.4 µM (inactive)
same,GI50,[33],18.5 µM (inactive)
same,GI50,[34],14.9 µM (inactive)
same,GI50,[35],10.1 µM (inactive)
same,GI50,[36],26.7 µM (inactive)
same,GI50,[37],15.1 µM (inactive)
same,GI50,[38],17 µM (inactive)
same,GI50,[39],25.6 µM (inactive)
same,GI50,[40],25.6 µM (inactive)
same,GI50,[41],15.7 µM (inactive)
same,GI50,[42],15.7 µM (inactive)
same,GI50,[43],21.7 µM (inactive)
same,GI50,[44],70 µM (inactive)
same,GI50,[46],25.1 µM (inactive)
same,GI50,[48],17.4 µM
same,GI50,[59],21.6 µM (inactive)
same,GI50,[49],57.7 µM (inactive)
same,GI50,[50],23.1 µM (inactive)
same,GI50,[51],31.2 µM (inactive)
same,GI50,[52],20.4 µM (inactive)
same,GI50,[53],19.8 µM (inactive)
same,GI50,[55],16.9 µM (inactive)
N=C(N)N/N=C/c1c(Cl)nc2n1CCS2,GI50,[1],> 100 µM (inactive)
same,GI50,[2],> 100 µM (inactive)
same,GI50,[3],90.8 µM (inactive)
same,GI50,[56],34.7 µM (inactive)
same,GI50,[4],> 100 µM (inactive)
same,GI50,[5],46.8 µM (inactive)
same,GI50,[57],57.3 µM (inactive)
same,GI50,[6],> 100 µM (inactive)
same,GI50,[7],70.3 µM (inactive)
same,GI50,[8],> 100 µM (inactive)
same,GI50,[9],16.6 µM (inactive)
same,GI50,[10],54.7 µM (inactive)
same,GI50,[11],> 10 µM (inactive)
same,GI50,[12],47.5 µM (inactive)
same,GI50,[13],> 100 µM (inactive)
same,GI50,[14],82.4 µM (inactive)
same,GI50,[15],71.9 µM (inactive)
same,GI50,[16],> 100 µM (inactive)
same,GI50,[17],50.8 µM (inactive)
same,GI50,[18],56.4 µM (inactive)
same,GI50,[19],> 100 µM (inactive)
same,GI50,[58],59.4 µM (inactive)
same,GI50,[20],49.4 µM (inactive)
same,GI50,[21],62.5 µM (inactive)
same,GI50,[22],> 100 µM (inactive)
same,GI50,[23],53.2 µM (inactive)
same,GI50,[24],48.4 µM (inactive)
same,GI50,[25],> 100 µM (inactive)
same,GI50,[26],> 100 µM (inactive)
same,GI50,[27],> 100 µM (inactive)
same,GI50,[28],22.5 µM (inactive)
same,GI50,[29],> 100 µM (inactive)
same,GI50,[30],38 µM (inactive)
same,GI50,[31],> 100 µM (inactive)
same,GI50,[32],50.5 µM (inactive)
same,GI50,[33],34.8 µM (inactive)
same,GI50,[34],76.9 µM (inactive)
same,GI50,[35],> 100 µM (inactive)
same,GI50,[36],45.3 µM (inactive)
same,GI50,[38],42.4 µM (inactive)
same,GI50,[39],66.5 µM (inactive)
same,GI50,[40],96.2 µM (inactive)
same,GI50,[41],29 µM (inactive)
same,GI50,[42],99.1 µM (inactive)
same,GI50,[43],90.2 µM (inactive)
same,GI50,[44],> 100 µM (inactive)
same,GI50,[45],> 100 µM (inactive)
same,GI50,[46],38.1 µM (inactive)
same,GI50,[47],> 100 µM (inactive)
same,GI50,[48],> 100 µM
same,GI50,[59],> 100 µM (inactive)
same,GI50,[49],> 100 µM (inactive)
same,GI50,[50],64.1 µM (inactive)
same,GI50,[51],62.5 µM (inactive)
same,GI50,[52],44.4 µM (inactive)
same,GI50,[53],> 100 µM (inactive)
same,GI50,[54],46.1 µM (inactive)
same,GI50,[55],73.8 µM (inactive)
